From US20260317324A1, “BIFUNCTIONAL COMPOUNDS FOR DEGRADING BRAF VIA UBIQUITIN PROTEOSOME PATHWAY” (Nurix Therapeutics, Inc., priority 2023, published 2026)

Key:
Format in all cases: cell-based
[1] = target: T1, BRAF G466V (Homo sapiens, UniProt P15056, G466V); assay: BRAF HiBiT degradation assay, C-terminal HiBiT-tagged BRAF G466V overexpressed in HCT-116 BRAF−/− cells (clone 8), Nano-Glo HiBiT Lytic assay
T1 construct: Horizon Discovery (HCT-116 BRAF−/− cells); host or cells: HCT-116 BRAF−/− cells, clone 8, lentiviral transduction
Excerpt: (§1) An A375 cell line expressing a homozygous V600E mutation was purchased from ATCC (Manassas, VA, USA). An A375 clone 1F10 cell line with an endogenous C-terminal HiBiT fusion tag on BRAF V600E allele was generated internally using CRISPR-Cas9 technology and cultured in DMEM, high glucose supplemented with 10% FBS and 1× GlutaMAX. A HCT-116 BRAF−/− cell line overexpressing the C-terminal HiBiT-tagged G466V, G469A, and D594G mutants were generated by lentiviral transduction, externally at Biosettia Inc (San Diego, CA, USA). The stably transfected cells were cultured in RPMI media supplemented with 10% FBS, 1× GlutaMAX, and 0.25 μg/ml puromycin. DMEM medium, RPMI 1640 medium, GlutaMAX, fetal bovine serum (FBS), and puromycin were purchased from Gibco (Grand Island, NY, USA). HCT-116 BRAF−/− cells were purchased from Horizon Discovery (Waterbeach, UK).
(§2) The C-terminal HiBiT tagged mutant BRAF G466V, G469A, and D594G overexpressed in HCT-116 BRAF−/− cells (monoclonal cell line, cell clones 8, 34, and 63, respectively) were seeded at the density of 3,000 cells/well in 30 μL media (RPMI supplemented with 10% FBS and 1× GlutaMAX) in white opaque 384-well plates (Corning #3570) from column 1 to column 23. Wildtype HCT-116 BRAF cells were seeded in column 24 at the same cell density in 30 μL media. Cells were incubated at 37° C. with 5% CO2 for 24 h.
(§3) Intermediate compound dilution series (5-point, ranging from 5 mM to 0.5 μM, 10-fold dilutions in DMSO) were prepared in a source plate (Beckman Coulter cat. no. 001-16128). Final compound dilution series (11-point, ranging from 1 μM to 0.01 nM, half-log dilutions in DMSO) were stamped into the assay plate (Corning #3570, column 1-11 and 12-22) using the Echo Acoustic Liquid Handler (Beckman Coulter). Each compound was plated in duplicate, and the total volume of compound DMSO solution was 60 nL/well (0.2% final DMSO concentration). DMSO was included in wells A23-L23 and A24-L24. The DMSO-treated HiBiT-tagged samples served as Negative Control (NC) and the DMSO-treated wildtype samples served as Background Control (BC) for the HiBiT assay.
(§4) HiBiT signal was measured by a Nano-Glo HiBiT Lytic assay (Promega cat. no. N3050). HiBiT lytic detection reagent (Nano-Glo HiBiT Lytic Buffer with 1:50 Nano-Glo HiBiT Lytic Substrate and 1:100 LgBiT Protein, 40 μL) was added using Bravo. The mixture was incubated at room temperature, in the dark, and with gentle shaking for 10 min. Luminesce units (LU) were read on an EnVision plate reader 2105 (Perkin Elmer).
(§5) Percent protein remaining and viability remaining per sample were calculated as follows: […]
(§6) % Protein remaining values were plotted as a function of compound concentration. XC50 (DC50) values were determined by fitting curves using the following equation:
(§7) For the HiBiT degradation assay, the key parameters reported include: • The dose of compound that produces 50% degradation (DC50 at 50%): • DC50 at 50%: the Fitted X value (Conc.) at Y=50 (response) • Observed Dmax (Obs. Dmax) is the percentage protein degraded at maximal compound effect relative to DMSO-treated control: […]

[2] = target: T2, BRAF V600E (Homo sapiens, UniProt P15056, V600E); assay: BRAF HiBiT degradation assay, C-terminal HiBiT-tagged BRAF V600E A375 cells (clone 1F10), Nano-Glo HiBiT Lytic assay; conditions: for Dmax: A-375
T2 construct: endogenous C-terminal HiBiT fusion tag on BRAF V600E allele; endogenous in cells; host or cells: A375 clone 1F10 (CRISPR-Cas9 knock-in of the HiBiT tag; parental A375 from ATCC)
How it was run: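 Luminescence from the Nano-Glo HiBiT lytic read-out gave % BRAF V600E remaining versus DMSO-treated tagged cells, with untagged A375 as background. Clone 1F10 cells (10,000/well, 24 h pre-culture) received compound at 1 μM–0.01 nM in half-log steps, 0.2% DMSO; curve fits gave DC50 at Y=50, plus observed Dmax.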

[3] = target: T3, BRAF G469A (Homo sapiens, UniProt P15056, G469A); assay: BRAF HiBiT degradation assay, C-terminal HiBiT-tagged BRAF G469A overexpressed in HCT-116 BRAF−/− cells (clone 34), Nano-Glo HiBiT Lytic assay
T3 construct: Horizon Discovery (HCT-116 BRAF−/− cells); host or cells: HCT-116 BRAF−/− cells, clone 34, lentiviral transduction
Excerpt: as §1, §2, §3, §4, §5, §6, §7

[4] = target: T4, BRAF D594G (Homo sapiens, UniProt P15056, D594G); assay: BRAF HiBiT degradation assay, C-terminal HiBiT-tagged BRAF D594G overexpressed in HCT-116 BRAF−/− cells (clone 63), Nano-Glo HiBiT Lytic assay
T4 construct: Horizon Discovery (HCT-116 BRAF−/− cells); host or cells: HCT-116 BRAF−/− cells, clone 63, lentiviral transduction
Excerpt: as §1, §2, §3, §4, §5, §6, §7

[5] = BRAF G466V (Class 3), HCT-116 BRAF−/− cells, DC50 at 50% degradation
[6] = BRAF G466V (Class 3), HCT-116 BRAF−/− cells, observed Dmax relative to DMSO control
[7] = A375 (BRAF V600E, Class 1), DC50 at 50% degradation
[8] = A375 (BRAF V600E, Class 1), observed Dmax, % protein degraded relative to DMSO control
[9] = BRAF G469A (Class 2), HCT-116 BRAF−/− cells, DC50 at 50% degradation
[10] = BRAF G469A (Class 2), HCT-116 BRAF−/− cells, observed Dmax relative to DMSO control
[11] = BRAF D594G (Class 3), HCT-116 BRAF−/− cells, DC50 at 50% degradation
[12] = BRAF D594G (Class 3), HCT-116 BRAF−/− cells, observed Dmax relative to DMSO control
[13] = BRAF G466V, DC50 at 50%: fitted conc. at Y=50
[14] = HCT-116, BRAF G466V, percentage protein degraded at maximal compound effect relative to DMSO
[15] = A375 (BRAF V600E), DC50 at 50%: fitted conc. at Y=50
[16] = A375 (BRAF V600E), percentage protein degraded at maximal compound effect relative to DMSO
[17] = Class 2, BRAF G469A, DC50 at 50%: fitted conc. at Y=50
[18] = HCT-116, Class 2, BRAF G469A, percentage protein degraded at maximal compound effect relative to DMSO
[19] = BRAF D594G, DC50 at 50%: fitted conc. at Y=50
[20] = HCT-116, BRAF D594G, percentage protein degraded at maximal compound effect relative to DMSO

T1 sequence (P15056 whole entry G466V): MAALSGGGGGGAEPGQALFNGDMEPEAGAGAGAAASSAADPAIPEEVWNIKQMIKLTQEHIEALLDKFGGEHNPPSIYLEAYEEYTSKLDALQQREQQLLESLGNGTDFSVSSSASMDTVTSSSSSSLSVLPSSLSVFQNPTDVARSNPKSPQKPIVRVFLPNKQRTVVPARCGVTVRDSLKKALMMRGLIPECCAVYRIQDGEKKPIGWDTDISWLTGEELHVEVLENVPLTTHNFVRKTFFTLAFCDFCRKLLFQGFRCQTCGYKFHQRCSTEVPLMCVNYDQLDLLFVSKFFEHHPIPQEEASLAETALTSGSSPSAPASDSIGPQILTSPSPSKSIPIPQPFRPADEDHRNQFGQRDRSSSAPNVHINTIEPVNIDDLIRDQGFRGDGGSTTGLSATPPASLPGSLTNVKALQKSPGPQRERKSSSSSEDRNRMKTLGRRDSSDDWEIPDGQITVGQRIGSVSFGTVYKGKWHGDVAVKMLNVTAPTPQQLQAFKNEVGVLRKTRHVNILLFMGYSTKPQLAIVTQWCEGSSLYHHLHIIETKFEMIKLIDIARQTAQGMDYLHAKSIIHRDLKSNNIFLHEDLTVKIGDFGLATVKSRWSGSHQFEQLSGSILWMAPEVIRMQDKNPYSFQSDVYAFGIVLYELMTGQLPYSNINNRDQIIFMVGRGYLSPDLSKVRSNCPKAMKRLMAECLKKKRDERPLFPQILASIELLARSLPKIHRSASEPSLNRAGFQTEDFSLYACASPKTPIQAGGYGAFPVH
T4 sequence (P15056 whole entry D594G): as the sequence (P15056 whole entry G466V) above, with V466G, D594G counted along it
T3 sequence (P15056 whole entry G469A): as the sequence (P15056 whole entry G466V) above, with V466G, G469A counted along it
T2 sequence (P15056 whole entry V600E, the tested form may be a part): as the sequence (P15056 whole entry G466V) above, with V466G, V600E counted along it

Row | SMILES | DC50 [1, 5] | Dmax [1, 6] | DC50 [2, 7] | Dmax [2, 8] | DC50 [3, 9] | Dmax [3, 10] | DC50 [4, 11] | Dmax [4, 12] | DC50 [1, 13] | Dmax [1, 14] | DC50 [2, 15] | Dmax [2, 16] | DC50 [3, 17] | Dmax [3, 18] | DC50 [4, 19] | Dmax [4, 20]
1 | O=C1CCC(c2cc(F)c(N3CCC(CN4CCN(c5ccc(-n6cc(-c7cc(Cl)cc(NS(=O)(=O)N8CCCC8)c7F)c(-c7ccncc7)n6)cc5)CC4)CC3)cc2F)C(=O)N1 (racemic) [Compound 386, Rac-N-{5-chloro-3-[1-(4-{4-[(1-{4-[(3R)-2,6-dioxopiperidin-3-yl]-2,5-difluorophenyl}piperidin-4-yl)methyl]piperazin-1-yl}phenyl)-3-(pyridin-4-yl)-1H-pyrazol-4-yl]-2-fluorophenyl}pyrrolidine-1-sulfonamide] | 10 to 50 nM | > 70% | 10 to 50 nM | > 70% | 50 to 500 nM | 30 to 70% | 10 to 50 nM | 30 to 70% |  |  |  |  |  |  |  | 
2 | CCCS(=O)(=O)Nc1cccc(-c2nc(CCC3CCN(C(=O)C4CCN(C(=O)C5CCN(c6ccc(C7CCC(=O)NC7=O)cn6)CC5)CC4)CC3)sc2-c2ccnc(N)n2)c1F (racemic) [Compound 205, Rac-N-{3-[5-(2-aminopyrimidin-4-yl)-2-(2-{1-[1-(1-{5-[(3R)-2,6-dioxopiperidin-3-yl]pyridin-2-yl}piperidine-4-carbonyl)piperidine-4-carbonyl]piperidin-4-yl}ethyl)-1,3-thiazol-4-yl]-2-fluorophenyl}propane-1-sulfonamide] |  |  |  |  |  |  |  |  | > 500 nM | 30 to 70% | < 10 nM | > 70% | > 500 nM | 30 to 70% | > 500 nM | 30 to 70%
3 | CCCS(=O)(=O)Nc1cccc(-c2nc(C3CCN(C(=O)C4CCN(C(=O)C5CCN(c6ccc(C7CCC(=O)NC7=O)cn6)CC5)CC4)CC3)sc2-c2ccnc(NC3CC3)n2)c1F (racemic) [Compound 198, Rac-N-(3-{5-[2-(cyclopropylamino)pyrimidin-4-yl]-2-{1-[1-(1-{5-[(3R)-2,6-dioxopiperidin-3-yl]pyridin-2-yl}piperidine-4-carbonyl)piperidine-4-carbonyl]piperidin-4-yl}-1,3-thiazol-4-yl}-2-fluorophenyl)propane-1-sulfonamide] |  |  |  |  |  |  |  |  | > 500 nM | 30 to 70% | < 10 nM | > 70% | > 500 nM | 30 to 70% | < 10 nM | 30 to 70%
4 | CCCS(=O)(=O)Nc1cccc(-c2cn(-c3ccc(C4CCN(CC5CCN(c6ccc(C7CCC(=O)NC7=O)cc6F)CC5)CC4)cc3)nc2-c2ccncc2)c1F (racemic) [Compound 22, Rac-N-{3-[1-(4-{1-[(1-{4-[(3R)-2,6-dioxopiperidin-3-yl]-2-fluorophenyl}piperidin-4-yl)methyl]piperidin-4-yl}phenyl)-3-(pyridin-4-yl)-1H-pyrazol-4-yl]-2-fluorophenyl}propane-1-sulfonamide] |  |  |  |  |  |  |  |  | 50 to 500 nM | 30 to 70% | 10 to 50 nM | > 70% | > 500 nM | < 30% | > 500 nM | 30 to 70%
5 | O=C1CCC(c2ccc(N3CCC4(CC3)CC(CN3CCN(c5ccc(-n6cc(-c7cc(Cl)cc(NS(=O)(=O)N8CC[C@@H](F)C8)c7F)c(-c7ccncc7)n6)nc5)CC3)C4)cc2)C(=O)N1 (mixture of isomers) [Compound 298, (3R)—N-{5-chloro-3-[1-(5-{4-[(7-{4-[(3RS)-2,6-dioxopiperidin-3-yl]phenyl}-7-azaspiro[3.5]nonan-2-yl)methyl]piperazin-1-yl}pyridin-2-yl)-3-(pyridin-4-yl)-1H-pyrazol-4-yl]-2-fluorophenyl}-3-fluoropyrrolidine-1-sulfonamide] | > 500 nM | < 30% | 50 to 500 nM | 30 to 70% | > 500 nM | < 30% | > 500 nM | < 30% |  |  |  |  |  |  |  | 

Further lines, results first:

Row | DC50 [1, 5] | Dmax [1, 6] | DC50 [2, 7] | Dmax [2, 8] | DC50 [3, 9] | Dmax [3, 10] | DC50 [4, 11] | Dmax [4, 12] | DC50 [1, 13] | Dmax [1, 14] | DC50 [2, 15] | Dmax [2, 16] | DC50 [3, 17] | Dmax [3, 18] | DC50 [4, 19] | Dmax [4, 20] | SMILES
6 |  |  |  |  |  |  |  |  | 10 to 50 nM | > 70% | 10 to 50 nM | > 70% | 50 to 500 nM | 30 to 70% | < 10 nM | 30 to 70% | CCCS(=O)(=O)Nc1cccc(-c2cn(-c3ccc(N4CCN(CC5CCN(c6ccc([C@H]7CCC(=O)NC7=O)cc6)CC5)CC4)cc3)nc2-c2ccncc2)c1F [Compound 16, N-{3-[1-(4-{4-[(1-{4-[(3R)-2,6-dioxopiperidin-3-yl]phenyl}piperidin-4-yl)methyl]piperazin-1-yl}phenyl)-3-(pyridin-4-yl)-1H-pyrazol-4-yl]-2-fluorophenyl}propane-1-sulfonamide]
7 |  |  |  |  |  |  |  |  | 50 to 500 nM | 30 to 70% | 50 to 500 nM | > 70% | > 500 nM | < 30% | > 500 nM | 30 to 70% | CCN(C)S(=O)(=O)Nc1cccc(-c2nc(C(C)(C)C)sc2-c2ccnc(Nc3ccc(N4CCN(CC5CCN(c6ccc([C@H]7CCC(=O)NC7=O)cc6)CC5)CC4)cn3)n2)c1F [Compound 128, (3R)-3-{4-[4-({4-[6-({4-[2-tert-butyl-4-(3-{[ethyl(methyl)sulfamoyl]amino}-2-fluorophenyl)-1,3-thiazol-5-yl]pyrimidin-2-yl}amino)pyridin-3-yl]piperazin-1-yl}methyl)piperidin-1-yl]phenyl}piperidine-2,6-dione]
8 |  |  |  |  |  |  |  |  | > 500 nM | < 30% | 10 to 50 nM | > 70% | > 500 nM | 30 to 70% | > 500 nM | < 30% | CCN(C)S(=O)(=O)Nc1cccc(-c2nc(C(C)(C)C)sc2-c2ccnc(Nc3ccc(N4CCN(C(=O)[C@H]5CC[C@H](CN6CCc7cc(C8CCC(=O)NC8=O)ccc7C6)CC5)CC4)cn3)n2)c1F (mixture of isomers) [Compound 125, Rac-(3S)-3-(2-{[(1r,4r)-4-{4-[6-({4-[2-tert-butyl-4-(3-{[ethyl(methyl)sulfamoyl]amino}-2-fluorophenyl)-1,3-thiazol-5-yl]pyrimidin-2-yl}amino)pyridin-3-yl]piperazine-1-carbonyl}cyclohexyl]methyl}-1,2,3,4-tetrahydroisoquinolin-6-yl)piperidine-2,6-dione]
